Results: US6022873A, “Metalloproteinase inhibitors” (British Biotech Pharmaceuticals Limited, priority 1996, dated 2000)

Molecular target: T1, human fibroblast collagenase (Homo sapiens, UniProt P03956)
T1 sequence (P03956 100-469): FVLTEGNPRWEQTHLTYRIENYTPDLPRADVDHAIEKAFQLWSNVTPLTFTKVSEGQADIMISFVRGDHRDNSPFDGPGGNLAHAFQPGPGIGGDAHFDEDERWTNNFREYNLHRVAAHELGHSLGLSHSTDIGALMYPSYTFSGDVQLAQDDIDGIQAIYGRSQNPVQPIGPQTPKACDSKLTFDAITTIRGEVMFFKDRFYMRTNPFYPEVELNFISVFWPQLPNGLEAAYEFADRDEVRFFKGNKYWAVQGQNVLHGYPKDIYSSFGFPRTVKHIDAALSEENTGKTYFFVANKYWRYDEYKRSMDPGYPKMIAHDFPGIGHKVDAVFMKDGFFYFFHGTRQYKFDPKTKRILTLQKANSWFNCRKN
Assay: Human fibroblast collagenase inhibition assay (14C-acetylated collagen hydrolysis, Cawston and Barrett)
Assay type: biochemical
Conditions: 37° C., 16 hours, acetylated 14C collagen, 25 mM Hepes pH 7.5; read-out: inhibitor concentration effecting 50% inhibition of the collagenase activity (IC50)
Protocol: The potency of compounds of the present invention as inhibitors of human fibroblast collagenase may be determined by the procedure of Cawston and Barrett, (Anal. Biochem., 99, 340-345, 1979), hereby incorporated by reference, whereby a 1 mM solution of the compound being tested, or a dilution thereof, was incubated at 37° C. for 16 hours with collagen and human fibroblast collagenase (buffered with 25 mM Hepes, pH 7.5 containing 5 mM CaCl2, 0.05% Brij 35 and 0.02% NaN3). The collagen was acetylated ^14 C collagen prepared by the method of Cawston and Murphy, (Methods in Enzymology, 80, 711, 1981), hereby incorporated by reference. The samples were centrifuged to sediment undigested collagen, and an aliquot of the radioactive supernatant removed for assay on a scintillation counter as a measure of hydrolysis.

IC50: ~50 nM
Compound: COc1ccc(S(=O)(=O)NCC[C@H](C(=O)NO)[C@@H](CC(C)C)C(=O)N2CCCCC2)cc1 [Example 2, 2S-[(4-Methoxybenzenesulfonyl-amino)-ethyl]-5-methyl-3R-(piperidine-1-carbonyl)-hexanoic acid hydroxyamide]
